Data from patent US20260132132A1, “3A,4,5,6-TETRAHYDRO-1 H-PYRAZOLO[3,4-C]PYRIDIN-7(7AH)-ONE DERIVATIVES AS FACTOR XIIA INHIBITORS” (KALVISTA PHARMACEUTICALS LIMITED, priority 2022, published 2026).

Assays:
FXa = FXa (Homo sapiens, UniProt P00742); test: Related protease inhibition: FXa, fluorogenic substrate; type: biochemical; conditions: fluorogenic substrate at Km, 25° C.; H1-H3 = % activity at 40 μM
Procedure: Human serine protease enzyme Plasma Kallikrein, KLK1, FXa, Plasmin, Thrombin and Trypsin were assayed for enzymatic activity using an appropriate fluorogenic substrate at Km concentration, FXIa at fixed substrate concentration of 100 μM and various concentrations of the test compound.

[1] = molecular target: T1, Human Factor XIIa (hFXIIa) (Homo sapiens, UniProt P00748); test: Determination of Human Factor XIIa (hFXIIa) inhibition, fluorogenic substrate IC50 assay; type: biochemical; conditions: fluorogenic substrate H-DPro-Phe-Arg-AFC at Km, 25° C., read-out: Human FXIIa IC50
T1 construct: purchased Enzyme Research Laboratories
T1 sequence (P00748 373-615 limits assumed): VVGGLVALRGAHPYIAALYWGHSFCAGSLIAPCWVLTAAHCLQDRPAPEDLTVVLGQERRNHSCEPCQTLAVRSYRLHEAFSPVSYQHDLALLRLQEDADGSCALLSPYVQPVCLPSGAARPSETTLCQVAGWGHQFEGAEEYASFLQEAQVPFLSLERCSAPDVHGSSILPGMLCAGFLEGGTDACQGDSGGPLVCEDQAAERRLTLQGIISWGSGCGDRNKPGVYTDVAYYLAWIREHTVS
T1 sequence (P00748 20-372 partner limits assumed): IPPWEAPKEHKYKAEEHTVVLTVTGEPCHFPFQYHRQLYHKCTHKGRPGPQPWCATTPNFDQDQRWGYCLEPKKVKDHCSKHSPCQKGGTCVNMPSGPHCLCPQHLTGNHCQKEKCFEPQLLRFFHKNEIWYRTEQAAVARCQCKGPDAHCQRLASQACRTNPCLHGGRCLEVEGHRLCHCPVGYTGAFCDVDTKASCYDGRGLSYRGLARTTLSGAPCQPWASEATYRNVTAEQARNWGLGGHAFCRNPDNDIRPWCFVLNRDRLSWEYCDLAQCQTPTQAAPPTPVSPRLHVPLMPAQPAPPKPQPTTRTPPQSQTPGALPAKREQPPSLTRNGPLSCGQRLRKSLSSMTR
Procedure: Determination of Human Factor XIIa (hFXIIa) inhibition
The Km for the cleavage of the substrate by hFXIIa was determined by standard transformation of the Michaelis-Menten equation, with subsequent inhibition assays performed at substrate Km concentration.

Sequence of FXa (P00742 235-488 limits assumed): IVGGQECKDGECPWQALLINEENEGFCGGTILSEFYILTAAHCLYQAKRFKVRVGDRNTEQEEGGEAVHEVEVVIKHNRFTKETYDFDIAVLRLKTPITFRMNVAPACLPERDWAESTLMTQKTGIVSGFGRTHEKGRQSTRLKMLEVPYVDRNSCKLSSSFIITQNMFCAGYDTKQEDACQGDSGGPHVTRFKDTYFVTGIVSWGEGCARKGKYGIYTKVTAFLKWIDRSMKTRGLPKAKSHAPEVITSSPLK
Sequence of FXa (P00742 41-179 partner limits assumed): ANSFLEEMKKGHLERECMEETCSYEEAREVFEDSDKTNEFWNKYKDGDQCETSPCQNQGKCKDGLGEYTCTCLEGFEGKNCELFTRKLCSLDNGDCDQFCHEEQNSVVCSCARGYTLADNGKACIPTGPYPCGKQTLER

Row | Compound | IC50 (FXa) | IC50 [1]
1 | CCN1CCOc2ccc(N3CCc4c(C(=O)NCc5cc(C)n(C)n5)nn(-c5cccc(Cl)c5)c4C3=O)cc2C1=O [Example 1317, 1-(3-chlorophenyl)-N-((1,5-dimethyl-1H-pyrazol-3-yl)methyl)-6-(4-ethyl-5-oxo-2,3,4,5-tetrahydrobenzo[f][1,4]oxazepin-7-yl)-7-oxo-4,5,6,7-tetrahydro-1H-pyrazolo[3,4-c]pyridine-3-carboxamide] | 3 to 10 µM | 0.01 to 0.1 µM
2 | CN(Cc1ccccc1)C(=O)c1nn(-c2cccc(Cl)c2)c2c1CCN(c1cccc(CN3CCCCC3)c1)C2=O [Example 1004, N-benzyl-1-(3-chlorophenyl)-N-methyl-7-oxo-6-(3-(piperidin-1-ylmethyl)phenyl)-4,5,6,7-tetrahydro-1H-pyrazolo[3,4-c]pyridine-3-carboxamide] | > 40 µM | 1 to 3 µM
3 | Cc1ccc(CNC(=O)c2nn(-c3cccc(Cl)c3)c3c2CCN(c2ccc4c(c2)CN(CCO)CC4)C3=O)cn1 [Example 1147, 1-(3-chlorophenyl)-6-(2-(2-hydroxyethyl)-1,2,3,4-tetrahydroisoquinolin-7-yl)-N-((6-methylpyridin-3-yl)methyl)-7-oxo-4,5,6,7-tetrahydro-1H-pyrazolo[3,4-c]pyridine-3-carboxamide] | 10 to 40 µM | 0.01 to 0.1 µM
4 | Cc1cc(CNC(=O)c2nn(-c3cccc(Cl)c3)c3c2CCN(c2cc4c(nn2)CCN(CCO)C4)C3=O)nn1C [Example 1227, 1-(3-chlorophenyl)-N-((1,5-dimethyl-1H-pyrazol-3-yl)methyl)-6-(6-(2-hydroxyethyl)-5,6,7,8-tetrahydropyrido[4,3-c]pyridazin-3-yl)-7-oxo-4,5,6,7-tetrahydro-1H-pyrazolo[3,4-c]pyridine-3-carboxamide] | 10 to 40 µM | 0.1 to 0.3 µM
5 | COc1cccnc1CNC(=O)c1nn(-c2cccc(Cl)c2)c2c1CCN(c1ccc3c(c1)C(=O)N(C)CC3)C2=O [Example 1233, 1-(3-chlorophenyl)-N-((3-methoxypyridin-2-yl)methyl)-6-(2-methyl-1-oxo-1,2,3,4-tetrahydroisoquinolin-7-yl)-7-oxo-4,5,6,7-tetrahydro-1H-pyrazolo[3,4-c]pyridine-3-carboxamide] | > 40 µM | 0.1 to 0.3 µM
6 | Cc1c[nH]nc1CNC(=O)c1nn(-c2cccc(Cl)c2)c2c1CCN(c1ccc3c(c1)C(=O)N(C)CC3)C2=O [Example 1248, 1-(3-chlorophenyl)-6-(2-methyl-1-oxo-1,2,3,4-tetrahydroisoquinolin-7-yl)-N-((4-methyl-1H-pyrazol-3-yl)methyl)-7-oxo-4,5,6,7-tetrahydro-1H-pyrazolo[3,4-c]pyridine-3-carboxamide] | 10 to 40 µM | 0.1 to 0.3 µM
7 | C[C@@H](CO)NC(=O)c1nn(-c2cccc(Cl)c2)c2c1CCN(c1ccc3c(c1)C(=O)N(C)CC3)C2=O [Example 1344, (S)-1-(3-chlorophenyl)-N-(1-hydroxypropan-2-yl)-6-(2-methyl-1-oxo-1,2,3,4-tetrahydroisoquinolin-7-yl)-7-oxo-4,5,6,7-tetrahydro-1H-pyrazolo[3,4-c]pyridine-3-carboxamide] | 10 to 40 µM | 0.3 to 1 µM
8 | CCNC(=O)c1nn(-c2cccc(Cl)c2)c2c1CCN(c1cccc(N3CCOC3=O)c1)C2=O [Example 1362, 1-(3-chlorophenyl)-N-ethyl-7-oxo-6-(3-(2-oxooxazolidin-3-yl)phenyl)-4,5,6,7-tetrahydro-1H-pyrazolo[3,4-c]pyridine-3-carboxamide] | > 40 µM | 3 to 10 µM
9 | COC(=O)C(NC(=O)c1nn(-c2cccc(Cl)c2)c2c1CCN(c1ccc3c(c1)C(=O)N(C)CC3)C2=O)c1cccnc1 (stereo not shown) [Example 1325, methyl 2-(1-(3-chlorophenyl)-6-(2-methyl-1-oxo-1,2,3,4-tetrahydroisoquinolin-7-yl)-7-oxo-4,5,6,7-tetrahydro-1H-pyrazolo[3,4-c]pyridine-3-carboxamido)-2-(pyridin-3-yl)acetate] | 1 to 3 µM | 0.1 to 0.3 µM
10 | O=C(NCc1cocn1)c1nn(-c2cccc(Cl)c2)c2c1CCN(c1ccc3c(c1)CN(CCO)CC3)C2=O [Example 1223, 1-(3-chlorophenyl)-6-(2-(2-hydroxyethyl)-1,2,3,4-tetrahydroisoquinolin-7-yl)-N-(oxazol-4-ylmethyl)-7-oxo-4,5,6,7-tetrahydro-1H-pyrazolo[3,4-c]pyridine-3-carboxamide] | 10 to 40 µM | 0.1 to 0.3 µM
11 | CN1CCc2ccc(N3CCc4c(C(=O)NCC5CC5)nn(-c5cc(Cl)cc(C#N)c5)c4C3=O)cc2C1=O [Example 2013, 1-(3-chloro-5-cyanophenyl)-N-(cyclopropylmethyl)-6-(2-methyl-1-oxo-1,2,3,4-tetrahydroisoquinolin-7-yl)-7-oxo-4,5,6,7-tetrahydro-1H-pyrazolo[3,4-c]pyridine-3-carboxamide] | > 40 µM | 3 to 10 µM
12 | COc1cccnc1CNC(=O)c1nn(-c2cccc(Cl)c2)c2c1CCN(c1ccc3c(c1)CN(CCO)CC3)C2=O [Example 1160, 1-(3-chlorophenyl)-6-(2-(2-hydroxyethyl)-1,2,3,4-tetrahydroisoquinolin-7-yl)-N-((3-methoxypyridin-2-yl)methyl)-7-oxo-4,5,6,7-tetrahydro-1H-pyrazolo[3,4-c]pyridine-3-carboxamide] | > 40 µM | 0.01 to 0.1 µM
13 | Cc1cccc(CNC(=O)c2nn(-c3cccc(Cl)c3)c3c2CCN(c2ccc4c(c2)CN(CCO)CC4)C3=O)n1 [Example 1139, 1-(3-chlorophenyl)-6-(2-(2-hydroxyethyl)-1,2,3,4-tetrahydroisoquinolin-7-yl)-N-((6-methylpyridin-2-yl)methyl)-7-oxo-4,5,6,7-tetrahydro-1H-pyrazolo[3,4-c]pyridine-3-carboxamide] | 10 to 40 µM | 0.01 to 0.1 µM
14 | CCNC(=O)c1nn(-c2cc(C)cc(CN)c2)c2c1CCN(c1ccc3c(c1)C(=O)N(C)CC3)C2=O [Example 2024, 1-(3-(aminomethyl)-5-methylphenyl)-N-ethyl-6-(2-methyl-1-oxo-1,2,3,4-tetrahydroisoquinolin-7-yl)-7-oxo-4,5,6,7-tetrahydro-1H-pyrazolo[3,4-c]pyridine-3-carboxamide] | > 40 µM | 0.01 to 0.1 µM
15 | Cc1cc(C)c(CNC(=O)c2nn(-c3cccc(Cl)c3)c3c2CCN(c2ccc4c(c2)C(=O)N(CCO)CC4)C3=O)cn1 [Example 1256, 1-(3-chlorophenyl)-N-((4,6-dimethylpyridin-3-yl)methyl)-6-(2-(2-hydroxyethyl)-1-oxo-1,2,3,4-tetrahydroisoquinolin-7-yl)-7-oxo-4,5,6,7-tetrahydro-1H-pyrazolo[3,4-c]pyridine-3-carboxamide] | > 40 µM | 0.01 to 0.1 µM
16 | CCNC(=O)c1nn(-c2cccc(Cl)c2)c2c1CCN(c1cccc(N3CCCOC3=O)c1)C2=O [Example 1363, 1-(3-chlorophenyl)-N-ethyl-7-oxo-6-(3-(2-oxo-1,3-oxazinan-3-yl)phenyl)-4,5,6,7-tetrahydro-1H-pyrazolo[3,4-c]pyridine-3-carboxamide] | > 40 µM | 3 to 10 µM
17 | O=C(NCc1ccccc1)c1nn(-c2cccc(Cl)c2)c2c1CCN(c1ccc3c(c1)CN(CC1CC1)CC3)C2=O [Example 1019, N-benzyl-1-(3-chlorophenyl)-6-(2-(cyclopropylmethyl)-1,2,3,4-tetrahydroisoquinolin-7-yl)-7-oxo-4,5,6,7-tetrahydro-1H-pyrazolo[3,4-c]pyridine-3-carboxamide] | > 40 µM | 0.1 to 0.3 µM
18 | O=C(O)c1nn(-c2cccc(Cl)c2)c2c1CCN(c1cccc(CN3CCCCC3)c1)C2=O [Example 1232, 1-(3-chlorophenyl)-7-oxo-6-(3-(piperidin-1-ylmethyl)phenyl)-4,5,6,7-tetrahydro-1H-pyrazolo[3,4-c]pyridine-3-carboxylic acid] | > 40 µM | 1 to 3 µM
19 | CCNC(=O)c1nn(-c2cccc(Cl)c2)c2c1CCN(c1cccc(N3C(=O)CC[C@@H]3C)c1)C2=O [Example 1398, (S)-1-(3-chlorophenyl)-N-ethyl-6-(3-(2-methyl-5-oxopyrrolidin-1-yl)phenyl)-7-oxo-4,5,6,7-tetrahydro-1H-pyrazolo[3,4-c]pyridine-3-carboxamide] | > 40 µM | 10 to 40 µM
20 | CN1CCc2ccc(N3CCc4c(C(=O)NCC5CCCCC5)nn(-c5cccc(Cl)c5)c4C3=O)cc2C1 [Example 1023, 1-(3-chlorophenyl)-N-(cyclohexylmethyl)-6-(2-methyl-1,2,3,4-tetrahydroisoquinolin-7-yl)-7-oxo-4,5,6,7-tetrahydro-1H-pyrazolo[3,4-c]pyridine-3-carboxamide] | 3 to 10 µM | 0.1 to 0.3 µM
